In patent publication US10793892B2, “Method for detecting the presence of expanded spectrum β-lactamase-producing bacteria in a sample” (INSERM (INSTITUT NATIONAL DE LA SANTE ET DE LA RECHERCHE …, priority 2011, dated 2020):

Assays:
M. morganii = test: ESBL NDP test using spiked blood cultures; type: biochemical, Morganella morganii; set-up: key: (+) and (−) referred to color change being, red to yellow or unchanged, respectively; (+) and (−) referred to color change being, red to yellow or unchanged, respectively
Method: (§1) Strains were isolated on Mueller-Hinton agar (Biorad, Marnes-la-Coquette, France) and incubated at 37° C. for 16 h to 24 h before performing the NDP rapid ESBL test as follows. One calibrated inoculated loop (10 μl) of the tested strain was resuspended in 150 μl of 20 mM Tris-HCl lysis buffer previously distributed in Microbead tubes (Ultraclean Microbial DNA isolation kit Bead Tubes, MO BIO Laboratories, Carlsbad, USA). Mechanical lysis of bacteria was performed by strong agitation of Microbead tubes using a vortex adapter (MO BIO Laboratories) for 30 min at room temperature. This bacterial suspension was centrifuged at 10,000×g at room temperature for 5 min. Thirty μl of the supernatant was mixed in a well of a 96-well tray with 100 μl of a 1 ml solution made of 3 mg of purified cefotaxime sodium salt (Sigma-Aldrich, Saint-Quentin-Fallavier, France) in a pH 7.8 phenol red solution. […]. […] Similarly, culture extracts were analyzed in wells containing cefotaxime and tazobactam (4 mg/ml). […]
(§2) Rapid detection of ESBL producers was attempted from spiked blood cultures which positivity was assessed using the BactAlert blood culture system (bioMérieux). […] Spiked blood cultures were made of 1×10^3 CFU of each strain and incubated 24 to 48 h before a positivity of the blood culture was detected by the BactAlert system. […]

S. ficaria = test: ESBL NDP test using spiked blood cultures; type: biochemical; set-up: key: (+) and (−) referred to color change being, red to yellow or unchanged, respectively; (+) and (−) referred to color change being, red to yellow or unchanged, respectively; conditions: S. ficaria CIP 104255, Wild-type
Method: as §1, §2

S. enterica = test: Susceptibility testing, MIC by Etest; type: cell-based, Salmonella enterica
Method: (§3) Susceptibility testing was performed by determining MIC values using the Etest® (AB bioMérieux; Solna, Sweden) on Mueller-Hinton agar plates at 37° C. and results were recorded according to US guidelines (CLSI), as updated in 2012 (2). The breakpoints for cefotaxime are susceptible (S)≤1 and resistant (R)≥4 μg/ml, and for ceftazidime S≤4 and R≥16 μg/ml.

C. freundii = test: Susceptibility testing, MIC by Etest; type: cell-based, Citrobacter freundii
Method: as §3

E. coli = test: ESBL NDP test using spiked blood cultures; type: biochemical, Escherichia coli; set-up: key: (+) and (−) referred to color change being, red to yellow or unchanged, respectively; (+) and (−) referred to color change being, red to yellow or unchanged, respectively
Method: (§4) Strains were isolated on Mueller-Hinton agar (Biorad, Marnes-la-Coquette, France) and incubated at 37° C. for 16 h to 24 h before performing the NDP rapid ESBL test as follows. One calibrated inoculated loop (10 μl) of the tested strain was resuspended in 150 μl of 20 mM Tris-HCl lysis buffer previously distributed in Microbead tubes (Ultraclean Microbial DNA isolation kit Bead Tubes, MO BIO Laboratories, Carlsbad, USA). Mechanical lysis of bacteria was performed by strong agitation of Microbead tubes using a vortex adapter (MO BIO Laboratories) for 30 min at room temperature. This bacterial suspension was centrifuged at 10,000×g at room temperature for 5 min. Thirty μl of the supernatant was mixed in a well of a 96-well tray with 100 μl of a 1 ml solution made of 3 mg of purified cefotaxime sodium salt (Sigma-Aldrich, Saint-Quentin-Fallavier, France) in a pH 7.8 phenol red solution. […]. The phenol red solution was made by taking 2 ml of a concentrated pH 8 phenol solution (made from a mixture of phenol red 0.5% in distilled water) to which 16.6 ml of distilled water was added. The pH value was then adjusted to a 7.8 value by adding drops of a 1 N NaOH solution. Mixture of the phenol red solution and the enzymatic suspension being tested was incubated at 37° C. for 30 min. Similarly, culture extracts were analyzed in wells containing cefotaxime and tazobactam (4 mg/ml). Other concentrations of tazobactam and other ß-lactamase inhibitors were tested giving less clear results (data not shown). […] This definition of test positivity will be applied throughout the study.
Rapid detection of ESBL producers was attempted from spiked blood cultures which positivity was assessed using the BactAlert blood culture system (bioMérieux). […] This inoculum was reached after 24-48 h incubation in this BactAlert system. Strains were inoculated into blood culture system in presence of 10 ml of sterile blood. The panel of strains used for spiking blood cultures included either non-ESBL producers (n=24) or ESBL producers (n=64) (Table 4). Spiked blood cultures were made of 1×10^3 CFU of each strain and incubated 24 to 48 h before a positivity of the blood culture was detected by the BactAlert system. Then, 15 ml of spiked blood culture were transferred in a sterile tube and centrifuged at 1,500×g for 3 min to pellet the red blood cells. The supernatant was recovered and centrifuged for 15 min at 4,000×g to pellet the bacteria. The bacterial pellet was then resuspended in 500 μl of distilled water, transferred in 1.5 ml tube and thoroughly vortexed for 15 sec to lyse the remnant red blood cells and wash the bacterial pellet. After 5 min of centrifugation at 10,000×g, the bacterial pellet was resuspended in 150 μl of 20 mM Tris-HCl lysis buffer and distributed in beadtubes. The ESBL NDP test was then applied to this pellet as described above. Experiments were systematically performed in triplicate.

E. aerogenes = test: ESBL NDP test using cultured strains; type: biochemical, Enterobacter aerogenes; set-up: key: (+) and (−) referred to color change being, red to yellow or unchanged, respectively; (+) and (−) referred to color change being, red to yellow or unchanged, respectively
Method: as §4

CO/N=C(\C(=O)N[C@@H]1C(=O)N2C(C(=O)O)=C(COC(C)=O)CS[C@H]12)c1csc(N)n1 [CTX, cefotaxime]
ESBL NDP Test from: Blood culture (M. morganii; M. morganii BG 1106 5902, Wild-type): − | ESBL NDP Test from: Blood culture (M. morganii; M. morganii BG 1117 0617, Wild-type): − | ESBL NDP Test from: Blood culture (S. ficaria): − | MICs range (S. enterica; S. enterica CTX-M-1, n=1): >16 µg/mL | MICs range (S. enterica; S. enterica Wild-type, no resistance, n=1): 0.05 µg/mL | MICs range (C. freundii; C. freundii CTX-M-15, n=3): >16 µg/mL | MICs range (C. freundii; C. freundii TEM-3, n=1): >16 µg/mL | MICs range (C. freundii; C. freundii Wild-type, chromosome-encoded cephalosporinase, n=1): 0.12 µg/mL | ESBL NDP Test from: Blood culture (E. coli; E. coli 09.11, TEM-52): + | ESBL NDP Test from: Blood culture (E. coli; E. coli 09.123, TEM-133): + | ESBL NDP Test from: Blood culture (E. coli; E. coli 09.124, TEM-52): + | ESBL NDP Test from: Blood culture (E. coli; E. coli 09.129, SHV-12): + | ESBL NDP Test from: Blood culture (E. coli; E. coli 09.173, SHV-12): + | ESBL NDP Test from: Blood culture (E. coli; E. coli 09.187, SHV-2a): + | ESBL NDP Test from: Blood culture (E. coli; E. coli 09.193, SHV-12): + | ESBL NDP Test from: Blood culture (E. coli; E. coli 09.207, SHV-2a): + | ESBL NDP Test from: Blood culture (E. coli; E. coli 09.225, TEM-52): + | ESBL NDP Test from: Blood culture (E. coli; E. coli 09.40, TEM-52): + | ESBL NDP Test from: Blood culture (E. coli; E. coli 09.41, SHV-12): + | ESBL NDP Test from: Blood culture (E. coli; E. coli 09.66, TEM-52): + | ESBL NDP Test from: Blood culture (E. coli; E. coli 09.73, TEM-52): + | ESBL NDP Test from: Blood culture (E. coli; E. coli 09.79, SHV-12): + | ESBL NDP Test from: Blood culture (E. coli; E. coli 09.92, TEM-52): + | ESBL NDP Test from: Blood culture (E. coli; E. coli 10.104, CTX-M-1): + | ESBL NDP Test from: Blood culture (E. coli; E. coli 10.11, CTX-M-14): + | ESBL NDP Test from: Blood culture (E. coli; E. coli 10.121, CTX-M-2): + | ESBL NDP Test from: Blood culture (E. coli; E. coli 10.124, CTX-M-14): + | ESBL NDP Test from: Blood culture (E. coli; E. coli 10.130, CTX-M-3): + | ESBL NDP Test from: Blood culture (E. coli; E. coli 10.13, CTX-M-14): + | ESBL NDP Test from: Blood culture (E. coli; E. coli 10.132, CTX-M-2): + | ESBL NDP Test from: Blood culture (E. coli; E. coli 10.16, CTX-M-15): + | ESBL NDP Test from: Blood culture (E. coli; E. coli 10.178, CTX-M-27): + | ESBL NDP Test from: Blood culture (E. coli; E. coli 10.198, CTX-M-27): + | ESBL NDP Test from: Blood culture (E. coli; E. coli 10.204, CTX-M-27): + | ESBL NDP Test from: Blood culture (E. coli; E. coli 10.207, CTX-M-27): + | ESBL NDP Test from: Blood culture (E. coli; E. coli 10.23, CTX-M-2): + | ESBL NDP Test from: Blood culture (E. coli; E. coli 10.32, CTX-M-14): + | ESBL NDP Test from: Blood culture (E. coli; E. coli 10.33, CTX-M-15): + | ESBL NDP Test from: Blood culture (E. coli; E. coli 10.36, CTX-M-1): + | ESBL NDP Test from: Blood culture (E. coli; E. coli 10.38, CTX-M-1): + | ESBL NDP Test from: Blood culture (E. coli; E. coli 10.43, CTX-M-15): + | ESBL NDP Test from: Blood culture (E. coli; E. coli 10.46, CTX-M-14): + | ESBL NDP Test from: Blood culture (E. coli; E. coli 10.49, CTX-M-15): + | ESBL NDP Test from: Blood culture (E. coli; E. coli 10.53, CTX-M-9): + | ESBL NDP Test from: Blood culture (E. coli; E. coli 10.64, CTX-M-32): + | ESBL NDP Test from: Blood culture (E. coli; E. coli 10.73, CTX-M-27): + | ESBL NDP Test from: Blood culture (E. coli; E. coli 10.74, CTX-M-15): + | ESBL NDP Test from: Blood culture (E. coli; E. coli 10.95, CTX-M-1): + | ESBL NDP Test from: Blood culture (E. coli; E. coli (Belgium), ACC-1): − | ESBL NDP Test from: Blood culture (E. coli; E. coli A7R5, SHV-3): + | ESBL NDP Test from: Blood culture (E. coli; E. coli BG 1106 5698, Penicillinase): − | ESBL NDP Test from: Blood culture (E. coli; E. coli BG 1106 6252, Wild-type): − | ESBL NDP Test from: Blood culture (E. coli; E. coli BG 1106 6367, Wild-type): − | ESBL NDP Test from: Blood culture (E. coli; E. coli BG 1106 7202, Penicillinase): − | ESBL NDP Test from: Blood culture (E. coli; E. coli BG 1107 8873, Wild-type): − | ESBL NDP Test from: Blood culture (E. coli; E. coli BG 1108 6157, Penicillinase): − | ESBL NDP Test from: Blood culture (E. coli; E. coli C5O52, CTX-M-28): + | ESBL NDP Test from: Blood culture (E. coli; E. coli Ec13 SYD, CMY-2): + | ESBL NDP Test from: Blood culture (E. coli; E. coli GOU, DHA-1): − | ESBL NDP Test from: Blood culture (E. coli; E. coli LOU, ACC-1): + | ESBL NDP Test from: Colonies (E. aerogenes; E. aerogenes BN 1113 0225, Wild-type): − | ESBL NDP Test from: Colonies (E. aerogenes; E. aerogenes E2O15, TEM-121): − | Test (color change) (E. aerogenes; E. aerogenes TEM-24, n=6): − | Test (color change) (E. aerogenes; E. aerogenes TEM-121, n=1): − | Test (color change) (E. aerogenes; E. aerogenes Wild-type, chromosome-encoded cephalosporinase, n=1): −
